Results taken from publication PMC12423841 (ACS Omega, 2025).

How the values were obtained:
in vitro = settings: African green monkey
[1] = test system: VSV pseudotyped with the SARS-CoV-2 Wuhan-Hu-1 S; assay: organism not typed; type: cell-based; settings: for antiviral activity (reduction of viral entry) versus cellular toxicity: VSVΔG-SWh in VeroE6 cells, various concentrations; for EC50: Vero C1008, read-out: EC50 (concentration reducing infection by VSV pseudotyped with the SARS-CoV-2 Wuhan-Hu-1 S by 50%)
[2] = test system: SARS-CoV-2 in A549-ACE2 cells; type: cell-based; settings: 24 h, compounds 20 μM, remdesivir 30 μM
[3] = test system: VSV pseudotyped with SARS-CoV-2 Delta Spike; type: cell-based; settings: dose response
[4] = test system: VSV pseudotyped with SARS-CoV-2 Omicron BA.1 Spike; type: cell-based; settings: dose response
[5] = test system: VSV pseudotyped with SARS-CoV-1 Spike; type: cell-based
[6] = test system: SARS-CoV-2 in VeroE6-TMPRSS2 cells; type: cell-based; settings: 24 h, compounds 20 μM, remdesivir 30 μM

SMILES | CC50 (in vitro) [µM] | antiviral activity (reduction of viral entry) versus cellular toxicity [1] | EC50 [1] [µM] | virus production after SARS-CoV-2 infection [2] | inhibition of infection by VSV pseudotyped with SARS-CoV-2 Delta Spike [3] | inhibition of infection by VSV pseudotyped with SARS-CoV-2 Omicron BA.1 Spike [4] | inhibition of infection by VSV pseudotyped with SARS-CoV-2 Wuhan Spike ([1]; dose response) | inhibition of infection by VSV pseudotyped with SARS-CoV-1 Spike [5] | virus production after SARS-CoV-2 infection [6]
C=C1CC[C@H](O)C/C1=C/C=C1\CCC[C@]2(C)[C@@H]([C@H](C)CCCC(C)(C)O)CC[C@@H]12 [calcifediol] | 16.8 ± 0.5 | antiviral activity could not be separated from toxicity | 6.13 ± 3.52 | – | – | – | – | – | –
C=C1CC[C@H](O)C/C1=C/C=C1\CCC[C@]2(C)[C@@H]([C@H](C)CCCC(C)C)CC[C@@H]12 [cholecalciferol] | 83.7 ± 6.12 | showed antiviral activity in the absence of toxicity | 14.8 ± 4.11 | – | – | – | – | – | –
CC(C)c1c(CN(C)C(C)Cc2ccccc2)n(C)n(-c2ccccc2)c1=O (stereo not shown) [famprofazone] | 79 ± 2.75 | showed antiviral activity in the absence of toxicity | 7.64 ± 4.55 | statistically significant reduction of virus production | – | – | – | – | –
CCCCCCCCc1ccc(CCC(N)(CO)CO)cc1 [fingolimod] | 20.4 ± 19.6 | showed antiviral activity in the absence of toxicity | 7.12 ± 2.25 | statistically significant reduction of virus production | dose-dependent reduction | dose-dependent reduction | dose-dependent reduction | dose-dependent reduction | significant reduction
CC[N+](C)(CC)CCOC(=O)C(O)(c1ccccc1)C1CCCCC1 (stereo not shown) [oxyphenomium] | – | could not be observed | – | – | – | – | – | – | –
CCC(CC)COC(=O)[C@H](C)N[P@](=O)(OC[C@H]1O[C@@](C#N)(c2ccc3c(N)ncnn23)[C@H](O)[C@@H]1O)Oc1ccccc1 [remdesivir] | – | – | – | reduced viral replication significantly | – | – | – | – | reduced viral replication significantly
